Consider seven molecules from patent publication US20240010602A1, “PHENYL UNSATURATED KETONES AS HUMAN FACTOR XIIIA INHIBITORS FOR TREATMENT OF THROMBOEMBOLIC DISEASES” (Xavier University of Louisiana, priority 2022, published 2024).

This assay concerns the target T1, human factor XIIIa (Homo sapiens, UniProt P00488).
T1 sequence (P00488 39-732 limits assumed): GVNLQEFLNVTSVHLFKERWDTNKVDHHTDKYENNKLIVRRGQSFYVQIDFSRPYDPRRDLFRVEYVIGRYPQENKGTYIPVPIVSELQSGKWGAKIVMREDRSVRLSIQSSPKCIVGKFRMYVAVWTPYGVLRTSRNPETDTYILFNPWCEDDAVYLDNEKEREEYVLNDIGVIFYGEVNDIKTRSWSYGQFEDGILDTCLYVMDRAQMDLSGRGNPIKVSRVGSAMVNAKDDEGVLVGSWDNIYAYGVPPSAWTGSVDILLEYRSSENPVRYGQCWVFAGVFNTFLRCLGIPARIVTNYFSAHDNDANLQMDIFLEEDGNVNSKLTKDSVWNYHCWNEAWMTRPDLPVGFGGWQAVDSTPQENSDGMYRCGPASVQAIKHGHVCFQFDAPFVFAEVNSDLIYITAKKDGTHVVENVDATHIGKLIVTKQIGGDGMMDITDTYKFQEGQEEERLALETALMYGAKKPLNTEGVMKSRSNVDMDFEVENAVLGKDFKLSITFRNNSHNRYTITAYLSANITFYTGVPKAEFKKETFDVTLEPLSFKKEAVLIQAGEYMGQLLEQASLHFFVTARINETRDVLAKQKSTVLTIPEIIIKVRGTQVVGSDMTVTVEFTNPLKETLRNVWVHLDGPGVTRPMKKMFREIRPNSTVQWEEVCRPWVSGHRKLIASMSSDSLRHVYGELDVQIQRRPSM
Put plainly: bi-substrate, fluorescence-based trans-glutamination assay. The conditions noted are these: pH 7.4, 37° C., 10 min incubation, N,N-dimethylcasein and dansylcadaverine substrates; read-out: FXIIIa IC50. It is filed as biochemical. The protocol:
To evaluate the effect of inhibitor on human factor XIIIa (and other transglutaminases), a bi-substrate, fluorescence-based trans-glutamination assay was performed. Generally, 1 μL of inhibitor was diluted with 87 μL of pH 7.4 buffer (50 mM Tris-HCl, 1 mM CaCl2, 100 mM NaCl, and 2 mg/mL N,N-dimethylcasein) and 5 μL dithiothreitol (20 mM) at 37° C. followed by the addition of 2 μL of human factor XIIIa (0.3 μM) and incubation for 10 min. The activity of factor XIIIa was monitored following the addition of 5 μL of dansylcadaverine (2 mM) by measuring the initial rate of increase in fluorescence emission (λEx.=360 nm and λEm.=490 nm). Relative residual factor XIIIa activity at each concentration of the inhibitor was calculated from the ratio of factor XIIIa activity in the presence and absence of the inhibitor. Logistic Eq. 1 was used to fit the concentration dependence of residual […] activity so as to obtain the potency (IC50) and efficacy (ΔY %) of inhibition.
In this equation, Y is the ratio of residual […] activity in the presence of inhibitor to that in its absence, YM and Y0 are the maximum and minimum possible values of the fractional residual factor XIIIa activity, IC50 is the concentration of the inhibitor that leads to 50% inhibition of enzyme activity, and HS is the Hill slope. YM, Y0, IC50, and HS values are determined by nonlinear curve fitting of the data. The data is shown in FIG. 2 (top panel) and Table 1 below: […]

As for `C=C(CC)C(=O)c1ccc(OCC(=O)O)c(Cl)c1Cl` [Formula II, 2-(2,3-dichloro-4-(2-methylenebutanoyl)phenoxy)acetic acid], the IC50 was 105 µM.
Under `C=C(CC)C(=O)c1ccc(OCC(=O)OC)c(Cl)c1Cl` [Formula III, methyl 2-(2,3-dichloro-4-(2-methylenebutanoyl)phenoxy)acetate] stands 92 µM; under `C=C(CC)C(=O)c1ccc(OCC(=O)NC)c(Cl)c1Cl` [Formula IV, 2-(2,3-dichloro-4-(2-methylenebutanoyl)phenoxy)-N-methylacetamide], 100 µM.
Consider `C=C(CC)C(=O)c1ccc(OCC(=O)N(C)C)c(Cl)c1Cl` [Formula V, 2-(2,3-dichloro-4-(2-methylenebutanoyl)phenoxy)-N,N-dimethylacetamide], for which the IC50 turned out to be 75 µM.
The figure for `C=C(CC)C(=O)c1c(Cl)cc(OCC(=O)O)cc1Cl` [Formula VI, 2-(3,5-dichloro-4-(2-methylenebutanoyl)phenoxy)acetic acid] is 51 µM; for `C=CC(=O)c1ccc(OCC(=O)O)c(Cl)c1Cl` [Formula VII, 2-(4-acryloyl-2,3-dichlorophenoxy)acetic acid] it is 83 µM; for `C=CC(=O)c1c(Cl)cc(OCC(=O)N(C)C)cc1Cl` [Formula VIII, 2-(4-acryloyl-3,5-dichlorophenoxy)-N,N-dimethylacetamide] it is 24 µM.
